Reference: PubChem BioAssay AID179 (DTP/NCI, 2004)
Activity calls are given as the source filed them.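 The calls were made as follows: active = compounds giving half or more protection of infected cells from virus-caused growth loss, again on retest; inactive = the rest.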

Test system: CEM cells HIV-1 protection, formazan growth assay
Assay: NCI AIDS Antiviral Assay
Settings: for IC50: measured here: growth of uninfected CEM cells
Procedure, shortened: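 Protection of CEM cells against HIV-1 was scored from cell growth (soluble formazan) across five concentrations, with parallel uninfected cells. Lack of protection may reflect toxicity.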

Structure (SMILES)	EC50 [µM]	IC50 [µM]	outcome
O=C1C2C3CC(C4C5C=CC(C5)C34)C2C2C3CC(C12)C1C2C=CC(C2)C31 (configuration not stated)	> 28.8	> 28.8	–
CCCC(=O)c1ccc2c(ccc(=O)n2C)c1	> 112	102	–
Cc1ccccc1NC(=O)CC(=O)NNCC(=O)Nc1nnc(-c2ccccc2)s1	> 61.7	46.8	–
c1ccc(N2CCN(CCCN3CCc4c([nH]c5ccccc45)C3c3cccnc3)CC2)cc1 (configuration not stated)	> 2.19	> 2.19	–
CN(NC(=O)c1cccs1)C1=NCCCN1	> 200	> 200	–
CCOC(=O)C(NC(=O)c1ccccc1)[CH](c1ccccc1)[Sn]([c]1ccccc1)([c]1ccccc1)[c]1ccccc1 (configuration not stated)	> 200	20.4	–
Cc1cccc(NC(=S)Nc2cccc(Cl)c2)n1	> 200	> 200	–
NC(=S)N/N=C(\CCC(=O)Nc1ccccc1[N+](=O)[O-])CC(=O)c1ccco1	> 234	> 234	–
CCOC(=O)C1C(=O)c2ccccc2CN1Cc1ccccc1 (configuration not stated)	–	–	inactive
O=C1Nc2c(ccc(Cl)c2I)C1=O	> 162	30.9	–
CC1OC2(CC(OCc3ccccc3)C1OCc1ccccc1)OCCO2 (configuration not stated)	> 200	29.5	–
CC1=C2c3ccccc3N(S(=O)(=O)c3ccccc3)[C@H]2[C@H](C(=O)N2C3CC4CC[C@@]3(CS2(=O)=O)C4(C)C)CC1 (some centres not stated)	5.25	18.6	–
O=C(O)CCNS(=O)(=O)c1ccc(NC(=O)c2ccccc2)cc1	–	–	inactive
CCCCC[C@@H]1CC=CC(NC(=O)OCc2ccccc2)C1/C=C/C(=O)OCCCC1OCCO1 (some centres not stated)	–	–	inactive
CCCCNC(=O)/C(=C\c1ccc(OC)c(OC)c1)NC(=O)c1ccccc1	> 200	> 200	–
Cc1ccc(NC(=O)CC2SC(N)=NC2=O)cc1C (configuration not stated)	–	–	inactive
O=C1OC2(OC2c2ccc(Cl)cc2)c2ccccc21 (configuration not stated)	> 69.2	> 69.2	–
COc1cc2cnc3c4ccccc4ccc3c2cc1OC	> 64.6	> 64.6	–
CC(=O)c1c2c(cc3c1CC1(C3)Cc3cc4c(c(C(=O)O)c3C1)CCCC4)CCCC2 (configuration not stated) (tested in a mixture with another compound)	> 200	38.9	–
NC1=NS(=O)(=O)Nc2nc[nH]c21	> 1320	> 1320	–
c1cc(C2O[C@H]3CCCN3[C@@H]2c2ccncc2)ccn1 (some centres not stated)	> 933	331	–
ClC1CCC2OOC1O2 (configuration not stated)	–	–	inactive

Structure (SMILES)	EC50 [µM]	IC50 [µM]	outcome
Cc1cccc2c(NCCCN(C)C)c3c([N+](=O)[O-])ccc(C)c3nc12	> 2	0.162	–
CCN=C(NNc1ccc([N+](=O)[O-])cc1)P(=O)(OC(C)C)OC(C)C	> 36.3	> 36.3	–
N#CCCN(C(=O)Nc1cccc(C(F)(F)F)c1)C1CCCCC1	> 200	> 200	–
CCOC(=O)NC(=O)c1cn(CCN2CCN(C(=O)CCCCCCCCCCNc3ncnc4nc[nH]c34)CC2)c(=O)[nH]c1=O	–	–	inactive
CC(=O)O[C@H]1CCc2c(cc(N)c3c2C(=O)C[C@]2(C)C([C@H](C)CCCC(C)C)CCC32C)C1(C)C (some centres not stated)	> 200	> 200	–
Cc1cc(C)n2c(C)nnc2c1	> 1550	1120	–
Cc1ccc(S(=O)(=O)C(C#N)c2nc3ccccc3nc2-n2ccnc2)cc1 (configuration not stated)	> 200	155	–
CCCCS(=O)(=O)CCC(N)C(=O)O (configuration not stated)	> 100	> 100	–
N#CC(C#N)=C(N)/C(C#N)=C/c1cc(O)c(O)c(Br)c1	> 77.6	> 77.6	–
CNC(=O)OCCN1c2ccccc2Sc2ccccc21	> 200	77.6	–
O=C1c2ccccc2C(=O)N1n1c(Cc2ccccc2)n[nH]c1=O	> 200	> 200	–
COc1ccc(S(=O)(=O)O)cc1N=N/C(=N/Nc1cc(S(=O)(=O)O)ccc1OC)C(=O)Nc1ccccc1	–	–	inactive
C=C(C)[C@@]1(O)CCCC[C@@H]1CC(Sc1ccccc1)Sc1ccccc1	> 200	19.1	–
CCOC(=O)CN1C(=O)S/C(=C2\C(=O)N(C)c3ccc(Br)cc32)C1=O	> 200	> 200	–
CC1(Br)OC(=O)C(C)(Br)OC1=O (configuration not stated)	> 200	> 200	–
CN1C(=O)N(C)C2SC(=NCc3ccccc3)NN2C1=O (configuration not stated)	> 85.1	81.3	–
CCN(CC)CC1CCCCN1CC(=O)N1c2ccccc2NC(=O)c2ccccc21 (configuration not stated)	> 200	> 200	–
c1ccc2nc3c(cc2c1)[nH]c1ccccc13	> 339	204	–
COc1ccc2c(c1)C(O)NC(=O)O2 (configuration not stated)	> 200	49	–
COc1ccc(C[N+](C)(C)N)cc1OC	> 200	> 200	–
CC(=O)[CH-]C(C)=O.CC(=O)[CH-]C(C)=O.[CH2-]CCC.[CH2-]CCC.[Sn+4]	> 60.3	0.661	–
N#CC1C(=S)NC(c2ccccc2)=CC12CCCCC2 (configuration not stated)	> 200	42.7	–

Structure (SMILES)	EC50 [µM]	IC50 [µM]	outcome
CC(C)=CCN1Cc2c(Cl)ccc3[nH]c(=S)n(c23)C[C@@H]1C	0.00224	5.89	–
CN(C)c1ccc(C2CC(c3ccc4ccccc4c3O)=NN2)cc1 (configuration not stated)	> 200	60.3	–
CCOC(=O)c1cn(CC)c2cc3c(cc2c1=O)CCS3(=O)=O	> 200	> 200	–
CCC(Oc1ccc(OC)c2c1C(=O)CCC2)C(=O)O (configuration not stated)	–	–	inactive
O=c1oc2ccccc2c(O)c1/C=N\c1nc(-c2ccccc2)cs1	> 200	3.39	–
N#Cc1cscc1C#N	> 200	> 200	–
Cc1cc(C)c(S(=O)(=O)Sc2nnnn2C)c(C)c1	> 603	126	–
CC1OC(Oc2ccc3c(=O)c(-c4ccc(O)cc4)coc3c2)C(O)C(O)C1O (configuration not stated)	> 200	93.3	–
O=C(c1ccccc1)c1ccc(SSc2ccc(C(=O)c3ccccc3)cc2[N+](=O)[O-])c([N+](=O)[O-])c1	> 200	13.8	–
OC(C1=C/C(=C\c2ccncc2)c2ccccc21)c1ccncc1 (configuration not stated)	> 83.2	5.25	–
O=C1NCN(c2ccccc2)C12CCN(CC1COc3ccccc3O1)CC2 (configuration not stated)	> 200	> 200	–
Nc1c(S(=O)(=O)O)cc(S(=O)(=O)O)c2ccc(N=Nc3ccc(CCc4ccc(N=Nc5ccc6c(S(=O)(=O)O)cc(S(=O)(=O)O)c(N)c6c5O)cc4S(=O)(=O)O)c(S(=O)(=O)O)c3)c(O)c12	8.13	138	–
C=C1[C@@H]2CCC(C)(C)[C@H]1CCC(=O)[C@@H]2C(=O)OC	> 269	251	–
COC(=O)[C@]12CCC(C)[C@H](C)[C@H]1C1=CCC3[C@@]4(C)CC[C@H](OC(C)=O)C(C)(C)C4CC[C@@]3(C)C1(C)C(O)C2 (some centres not stated)	–	–	inactive
COc1c(Cl)cc(C(=CCCCC(=O)N(C)OC)c2cc(Cl)c(OC)c(C(=O)N(C)OC)c2)cc1C(=O)N(C)OC	> 200	30.9	–
COc1ccc(C(=O)O)c2c(=O)c3ccccc3[nH]c12	–	–	inactive
O=C(O)C1C2C=CC(C2)C1c1c2ccc(=O)c(O)c-2oc2c(O)c(O)ccc12 (configuration not stated)	> 200	26.3	–
Nc1nnc(N)c2[nH]cnc12	> 200	> 200	–
O/N=C1/CCCC/C1=C\c1ccc(Cl)c(Cl)c1	–	–	inactive
O=C(Cc1ccccc1)NN1C(=O)/C(=C\c2ccccc2O)SC1=Nc1ccccc1	> 219	174	–
